Source: ChEMBL document CHEMBL4732160, “Design and synthesis of 7-O-1,2,3-triazole hesperetin derivatives to relieve inflammation of acute liver injury in mice” (Eur J Med Chem, 2021)
The source made the active and inactive calls. The calls are words filed in the database; no cut-off is given here.

Tests used:
[1] = tested on: RAW264.7; test: Antiinflammatory activity in mouse RAW264.7 cells assessed as inhibition of LPS-induced IL6 production at 10 uM preincubated for 1 hr followed by LPS stimulation and measured after 22 hrs by ELISA; format: functional, cell-based; conditions: time 23.0 hrs
[2] = tested on: RAW264.7; test: Antiinflammatory activity in mouse RAW264.7 cells assessed as inhibition of LPS-induced IL6 production preincubated for 1 hr followed by LPS stimulation and measured after 22 hrs by ELISA; format: functional, cell-based; conditions: dose 1.25-20 µM, time 23.0 hrs
[3] = tested on: RAW264.7; test: Antiinflammatory activity in mouse RAW264.7 cells assessed as inhibition of LPS-induced NO production preincubated for 2 hrs followed by LPS stimulation and measured after 24 hrs by Griess method; format: functional, cell-based
[4] = tested on: RAW264.7; test: Antiinflammatory activity in mouse RAW264.7 cells assessed as inhibition of LPS-induced ROS production preincubated for 1 hr followed by LPS stimulation and measured after 24 hrs by DCFH-DA staining based flow cytometry; format: functional, cell-based; conditions: dose 2.5-10 µM, time 25.0 hrs
[5] = tested on: RAW264.7; test: Inhibition of LPS-induced NFkappaB activation in mouse RAW264.7 cells assessed as reduction in p65 nuclear translocation preincubated for 1 hr followed by LPS-stimulation and measured after 0.5 hrs by Western blot analysis; format: cell-based; conditions: dose 5-20 µM, time 1.5 hrs
[6] = tested on: Mus musculus; test: Antiinflammatory activity in CCl4-induced C57BL/6J mouse model of liver injury assessed as reduction in IL6 expression administered daily for 7 days followed by CCl4 addition and measured after 24 hrs by ELISA; format: functional, organism-based; conditions: dose 50-200 mg/kg, time 8.0 day
[7] = tested on: Mus musculus; test: Antiinflammatory activity in CCl4-induced C57BL/6J mouse model of liver injury assessed as reduction in IL1beta expression administered daily for 7 days followed by CCl4 addition and measured after 24 hrs by ELISA; format: functional, organism-based; conditions: dose 50-200 mg/kg, time 8.0 day
[8] = Cytotoxicity against mouse RAW264.7 cells assessed as cell viability at 40 uM measured after 24 hrs by MTT assay relative to control; format: cell-based
[9] = tested on: RAW264.7; test: Cytotoxicity against mouse RAW264.7 cells assessed as reduction in cell viability at 60 uM measured after 24 hrs by MTT assay; format: cell-based; conditions: raw264.7, 24 h
[10] = tested on: Mus musculus; test: Antiinflammatory activity in CCl4-induced C57BL/6J mouse model of liver injury assessed as reduction in TNFalpha expression administered daily for 7 days followed by CCl4 addition and measured after 24 hrs by ELISA; format: functional, organism-based; conditions: dose 50-200 mg/kg, time 8.0 day
[11] = tested on: RAW264.7; test: Antiinflammatory activity in mouse RAW264.7 cells assessed as inhibition of LPS-induced iNOS expression preincubated for 1 hr followed by LPS stimulation and measured after 24 hrs by Western blot analysis; format: functional, cell-based; conditions: dose 5-20 µM, time 25.0 hrs
[12] = tested on: RAW264.7; test: Antiinflammatory activity in mouse RAW264.7 cells assessed as inhibition of LPS-induced IL1beta production at 10 uM preincubated for 1 hr followed by LPS stimulation and measured after 22 hrs by ELISA; format: functional, cell-based; conditions: time 23.0 hrs
[13] = tested on: RAW264.7; test: Antiinflammatory activity in mouse RAW264.7 cells assessed as inhibition of LPS-induced NO production at 10 uM preincubated for 2 hrs followed by LPS stimulation and measured after 24 hrs by Griess method relative to control; format: functional; conditions: time 26 hrs
[14] = tested on: Mus musculus; test: Antiinflammatory activity in CCl4-induced C57BL/6J mouse model of liver injury assessed as reduction in liver damage at 50 to 200 mg/kg administered daily for 7 days followed by CCl4 addition and measured after 24 hrs by H and E staining based microscopic analysis; format: functional, organism-based; conditions: dose 50-200 mg/kg, time 8.0 day
[15] = tested on: RAW264.7; test: Antiinflammatory activity in mouse RAW264.7 cells assessed as inhibition of LPS-induced COX2 expression preincubated for 1 hr followed by LPS stimulation and measured after 24 hrs by Western blot analysis; format: functional, cell-based; conditions: dose 5-20 µM, time 25.0 hrs
[16] = tested on: RAW264.7; test: Antiinflammatory activity in mouse RAW264.7 cells assessed as inhibition of LPS-induced IL1beta production preincubated for 1 hr followed by LPS stimulation and measured after 22 hrs by ELISA; format: functional, cell-based; conditions: dose 1.25-20 µM, time 23.0 hrs
[17] = tested on: RAW264.7; test: Antiinflammatory activity in mouse RAW264.7 cells assessed as inhibition of LPS-induced TNFalpha production preincubated for 1 hr followed by LPS stimulation and measured after 22 hrs by ELISA; format: functional, cell-based; conditions: dose 1.25-20 µM, time 23.0 hrs
[18] = tested on: RAW264.7; test: Inhibition of LPS-induced NFkappaB activation in mouse RAW264.7 cells assessed as reduction in IkappaBalpha phosphorylation at 5 to 20 uM preincubated for 1 hr followed by LPS-stimulation and measured after 0.5 hrs by Western blot analysis; format: cell-based; conditions: dose 5-20 µM, time 1.5 hrs
[19] = tested on: Mus musculus; test: Antiinflammatory activity in CCl4-induced C57BL/6J mouse model of liver injury assessed as reduction in ALT level administered daily for 7 days followed by CCl4 addition and measured after 24 hrs; format: functional, organism-based; conditions: dose 50-200 mg/kg, time 8.0 day
[20] = tested on: RAW264.7; test: Antiinflammatory activity in mouse RAW264.7 cells assessed as inhibition of LPS-induced TNFalpha production at 10 uM preincubated for 1 hr followed by LPS stimulation and measured after 22 hrs by ELISA; format: functional, cell-based; conditions: time 23.0 hrs

IC50 [3] | Compound | inhibition [1] | inhibition [2] | inhibition [4] | inhibition [5] | Activity [6] | Activity [7] | viability at 24 h, 40 µM [8] | Activity [9] | Activity [10] | inhibition [11] | inhibition [12] | inhibition at 10 µM [13] | Activity [14] | inhibition [15] | inhibition [16] | inhibition [17] | inhibition [18] | Activity [19] | inhibition [20]
2.34 µM | CCCn1cc(COc2cc(O)c3c(c2)O[C@H](c2ccc(OC)c(O)c2)C/C3=N\O)nn1 | Active | Dose-dependent effect | Dose-dependent effect | Dose-dependent effect | Dose-dependent effect | Dose-dependent effect | 114% | Non-Toxic | Dose-dependent effect | Dose-dependent effect | Active | 67.5% | Active | Dose-dependent effect | Dose-dependent effect | Dose-dependent effect | Active | Dose-dependent effect | Active
17.7 µM | COc1ccc([C@@H]2CC(=O)c3c(O)cc(OCc4cn(Cc5ccc(C(F)(F)F)cc5)nn4)cc3O2)cc1O | Active |  |  |  |  |  | 66% |  |  |  | Active | 36.4% |  |  |  |  |  |  | Active
